In ChEMBL document CHEMBL4130359, “Indazole-based ligands for estrogen-related receptor α as potential anti-diabetic agents” (Eur J Med Chem, 2017):
Activity calls are given as the source filed them. The rule behind the calls is not given here.

Tests used:
[1] = system: Rattus norvegicus; assay: Toxicity in Zucker rat sub-chronic fa/fa prediabetic model assessed as brown adipose tissue weight at 10 mg/kg, po qd for 31 days measured on day 32 (reference value: 2.1 +/- 0.3 g); format: organism-based; conditions: in vivo, 744 h
[2] = system: Rattus norvegicus; assay: Effect on HSD17B4 gene expression in epididymal white adipose tissue of Zucker rat sub-chronic fa/fa prediabetic model at 10 mg/kg, po qd for 15 days by microarray analysis relative to control; format: functional
[3] = system: Rattus norvegicus; assay: Toxicity in […] chronic ob/ob model assessed as change in body weight at 10 mg/kg, po qd for 28 days measured on day 1 to 28 during compound dosing (reference value: 9.9 +/- 1.27 g); format: organism-based; conditions: in vivo, 672 h
[4] = system: Rattus norvegicus; assay: Effect on TXNRD2 gene expression in epididymal white adipose tissue of Zucker rat sub-chronic fa/fa prediabetic model at 10 mg/kg, po qd for 15 days by microarray analysis relative to control; format: functional
[5] = system: Rattus norvegicus; assay: Toxicity in Zucker rat sub-chronic fa/fa prediabetic model assessed as epididymal white adipose tissue weight at 10 mg/kg, po qd for 31 days measured on day 32 (reference value: 13.9 +/- 0.6 g); format: organism-based; conditions: in vivo, 744 h
[6] = system: Rattus norvegicus; assay: Toxicity in Zucker rat sub-chronic fa/fa prediabetic model assessed as serum cholesterol level at 50 mg/kg, po qd for 31 days measured on day 32 (reference value: 295 +/- 91 mg/dl); format: organism-based; conditions: in vivo, 744 h
[7] = molecular target: Peroxisome proliferator-activated receptor gamma (Homo sapiens, UniProt P37231); assay: Inhibition of fluormone PPARgamma Green binding to recombinant N-terminal GST-tagged human PPARgamma LBD by fluorescence polarization assay
[8] = Cmax in Zucker rat sub-chronic fa/fa prediabetic model at 10 mg/kg, po qd for 26 days measured on day 26 post last dose; format: ADME, organism-based; design: dose 10 mg/kg, route oral; conditions: in vivo
[9] = Clearance in Sprague-Dawley rat at 2 mg/kg, iv by LC-MS analysis; format: ADME, organism-based; conditions: in vivo
[10] = AUC (0 to 24 hrs) in […] model at 50 mg/kg, po qd for 28 days measured on day 28 post last dose; format: ADME, organism-based; design: dose 50 mg/kg, time < 24 hr, route oral; conditions: in vivo
[11] = system: Rattus norvegicus; assay: Effect on PFKFB1 gene expression in epididymal white adipose tissue of Zucker rat sub-chronic fa/fa prediabetic model at 10 mg/kg, po qd for 15 days by microarray analysis relative to control; format: functional
[12] = system: Rattus norvegicus; assay: Increase in ACADM mRNA expression in epididymal white adipose tissue of Zucker rat sub-chronic fa/fa prediabetic model at 10 mg/kg, po qd for 15 days by RT-PCR method; format: functional, organism-based
[13] = system: Rattus norvegicus; assay: Antidiabetic activity in Zucker rat sub-chronic fa/fa prediabetic model assessed as increase in serum adiponectin level at 50 mg/kg, po qd for 4 days by ELISA relative to control; format: functional
[14] = system: Rattus norvegicus; assay: Effect on PIAS1 gene expression in epididymal white adipose tissue of Zucker rat sub-chronic fa/fa prediabetic model at 10 mg/kg, po qd for 15 days by microarray analysis relative to control; format: functional
[15] = system: Rattus norvegicus; assay: Effect on IL36B gene expression in epididymal white adipose tissue of Zucker rat sub-chronic fa/fa prediabetic model at 10 mg/kg, po qd for 15 days by microarray analysis relative to control; format: functional
[16] = system: Rattus norvegicus; assay: Toxicity in […] model assessed as serum AST level at 10 mg/kg, po qd for 31 days measured on day 32 (reference value: 180 +/- 26 U/L); format: organism-based; conditions: in vivo, 744 h
[17] = system: Rattus norvegicus; assay: Effect on PRDX3 gene expression in epididymal white adipose tissue of Zucker rat sub-chronic fa/fa prediabetic model at 10 mg/kg, po qd for 15 days by microarray analysis relative to control; format: functional
[18] = system: Rattus norvegicus; assay: Toxicity in Zucker rat sub-chronic fa/fa prediabetic model assessed as serum BUN level at 10 mg/kg, po qd for 31 days measured on day 32 (reference value: 28.3 +/- […]); format: organism-based; conditions: in vivo, 744 h
[19] = system: Rattus norvegicus; assay: Effect on NDUFA5 gene expression in epididymal white adipose tissue of Zucker rat sub-chronic fa/fa prediabetic model at 10 mg/kg, po qd for 15 days by microarray analysis relative to control; format: functional
[20] = system: Rattus norvegicus; assay: Toxicity in Zucker rat sub-chronic fa/fa prediabetic model assessed as brown adipose tissue weight at 50 mg/kg, po qd for 31 days measured on day 32 (reference value: 2.1 +/- 0.3 g); format: organism-based; conditions: in vivo, 744 h
[21] = system: Rattus norvegicus; assay: Toxicity in Zucker rat sub-chronic fa/fa prediabetic model assessed as food intake at 10 mg/kg, po qd for 29 days measured on day 1 to 29 during compound dosing (reference value: 969 +/- 18 g); format: organism-based; conditions: in vivo, 696 h
[22] = system: Rattus norvegicus; assay: Toxicity in […] model assessed as serum cholesterol level at 3 mg/kg, po qd for 31 days measured on day 32 (reference value: 195 +/- 5.5 mg/dl); format: organism-based; conditions: in vivo, 744 h
[23] = AUC (0 to 24 hrs) in Zucker rat sub-chronic fa/fa prediabetic model at 3 mg/kg, po qd for 26 days measured on day 26 post last dose; format: ADME, organism-based; design: time < 24 hr, dose 3 mg/kg, route oral; conditions: in vivo
[24] = system: Rattus norvegicus; assay: Effect on IGFBP4 gene expression in epididymal white adipose tissue of Zucker rat sub-chronic fa/fa prediabetic model at 10 mg/kg, po qd for 15 days by microarray analysis relative to control; format: functional
[25] = system: Rattus norvegicus; assay: Antidiabetic activity in Zucker rat sub-chronic fa/fa prediabetic model assessed as reduction in blood glucose AUC (0 to 120 min) at 1 mg/kg, po qd for 31 days measured on day 29 post dose by OGTT relative to control; format: functional; design: scale not given: the % may be the effect or the level left
[26] = system: Rattus norvegicus; assay: Decrease in fed plasma triglyceride level in Zucker rat sub-chronic fa/fa prediabetic model assessed as change in plasma triglyceride level at 10 mg/kg, po qd for 4 days measured on day 5 relative to control; format: functional; design: scale not given: the % may be the effect or the level left
[27] = system: Rattus norvegicus; assay: Toxicity in Zucker rat sub-chronic fa/fa prediabetic model assessed as serum ALT level at 50 mg/kg, po qd for 31 days measured on day 32 (reference value: 151 +/- 23 U/L); format: organism-based; conditions: in vivo, 744 h
[28] = Oral bioavailability in CD-1 mouse at 20 mg/kg administered via gavage by LC-MS analysis; format: ADME, organism-based; conditions: in vivo
[29] = system: Rattus norvegicus; assay: Effect on NDUFV2 gene expression in epididymal white adipose tissue of Zucker rat sub-chronic fa/fa prediabetic model at 10 mg/kg, po qd for 15 days by microarray analysis relative to control; format: functional
[30] = system: Rattus norvegicus; assay: Toxicity in Zucker rat sub-chronic fa/fa prediabetic model assessed as serum AST level at 50 mg/kg, po qd for 31 days measured on day 32 (reference value: 187 +/- 37 U/L); format: organism-based; conditions: in vivo, 744 h
[31] = system: Rattus norvegicus; assay: Toxicity in Zucker rat sub-chronic fa/fa prediabetic model assessed as brown adipose tissue weight at 3 mg/kg, po qd for 31 days measured on day 32 (reference value: 2.1 +/- 0.3 g); format: organism-based; conditions: in vivo, 744 h
[32] = system: Rattus norvegicus; assay: Effect on NDUFB5 gene expression in epididymal white adipose tissue of Zucker rat sub-chronic fa/fa prediabetic model at 10 mg/kg, po qd for 15 days by microarray analysis relative to control; format: functional
[33] = system: Rattus norvegicus; assay: Effect on ECHS1 gene expression in epididymal white adipose tissue of Zucker rat sub-chronic fa/fa prediabetic model at 10 mg/kg, po qd for 15 days by microarray analysis relative to control; format: functional

Sequence of Peroxisome proliferator-activated receptor gamma (P37231 whole entry, the tested form may be a part): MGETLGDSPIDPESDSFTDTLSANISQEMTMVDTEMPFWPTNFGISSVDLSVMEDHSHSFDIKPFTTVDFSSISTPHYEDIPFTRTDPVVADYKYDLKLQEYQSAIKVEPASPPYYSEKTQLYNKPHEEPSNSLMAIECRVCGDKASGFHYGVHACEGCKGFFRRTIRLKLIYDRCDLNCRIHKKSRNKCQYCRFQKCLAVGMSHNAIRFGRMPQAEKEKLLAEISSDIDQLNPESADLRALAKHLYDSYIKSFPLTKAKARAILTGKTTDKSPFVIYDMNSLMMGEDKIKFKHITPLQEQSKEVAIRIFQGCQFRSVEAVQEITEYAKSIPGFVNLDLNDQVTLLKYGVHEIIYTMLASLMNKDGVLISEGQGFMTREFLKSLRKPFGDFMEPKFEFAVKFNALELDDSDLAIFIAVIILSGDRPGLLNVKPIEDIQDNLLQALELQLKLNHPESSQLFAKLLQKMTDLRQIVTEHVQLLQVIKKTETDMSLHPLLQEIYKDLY

## CN1CC[C@@H](N2C(=O)S/C(=C\c3ccc4c(cnn4Cc4ccc(Cl)cc4C(F)(F)F)c3)C2=O)[C@H](F)C1
[1]
  Activity: 8.7 g
[2]
  fold change (FC): 1.226
[3]
  Activity: 8.7 g
[4]
  fold change (FC): 1.311
[5]
  Activity: 19.1 g
[6]
  Activity: 203 mg/dL
[7]
  IC50: > 10 µM
[8]
  Cmax: 2900 ng/mL
[9]
  clearance: 23 mL/min/kg
[10]
  AUC at 24 h: 31600 ng·h/mL
[11]
  fold change (FC): 1.634
[12]
  Activity: Active
[13]
  fold change (FC): 1.9
[14]
  fold change (FC): -1.323
[15]
  fold change (FC): -1.232
[16]
  Activity: 171 U/L
[17]
  fold change (FC): 1.559
[18]
  Activity: 26.9 mg/dL
[19]
  fold change (FC): 1.568
[20]
  Activity: 10.3 g
[21]
  Activity: 1060 g
[22]
  Activity: 171 mg/dL
[23]
  AUC at 24 h: 10800 ng·h/mL
[24]
  fold change (FC): -1.825
[25]
  Activity: 23%
[26]
  Activity: -68%
[27]
  Activity: 104 U/L
[28]
  bioavailability: 52%
[29]
  fold change (FC): 1.44
[30]
  Activity: 87 U/L
[31]
  Activity: 4.4 g
[32]
  fold change (FC): 1.206
[33]
  fold change (FC): 1.35
